According to PubChem BioAssay (NCI):
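A five-concentration, 48-hour dose response in 96-well plates underlies each endpoint, interpolated linearly between surrounding concentrations. The concentration for full growth arrest is given as TGI.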

Experiments:
Assay in all cases: inhibition of tumour cell growth, NCI panel, 48 h
RXF 393 renal = test system: RXF 393 renal
CAKI-1 renal = test system: CAKI-1 renal
SNB-19 CNS = test system: SNB-19 CNS
PC-3 prostate = test system: PC-3 prostate
BT-549 breast = test system: BT-549 breast
UO-31 renal = test system: UO-31 renal
M14 melanoma = test system: M14 melanoma
SF-268 CNS = test system: SF-268 CNS
MOLT-4 leukemia = test system: MOLT-4 leukemia
SNB-75 CNS = test system: SNB-75 CNS
NCI-H23 lung = test system: NCI-H23 lung
MALME-3M melanoma = test system: MALME-3M melanoma
UACC-62 melanoma = test system: UACC-62 melanoma
HL-60(TB) leukemia = test system: HL-60(TB) leukemia
HCT-15 colon = test system: HCT-15 colon
UACC-257 melanoma = test system: UACC-257 melanoma
ACHN renal = test system: ACHN renal
HT29 colon = test system: HT29 colon
A549 NSCLC = test system: A549 NSCLC
T-47D breast = test system: T-47D breast
SK-MEL-28 melanoma = test system: SK-MEL-28 melanoma
SW-620 colon = test system: SW-620 colon
HOP-92 NSCLC = test system: HOP-92 NSCLC
786-0 renal = test system: 786-0 renal
DU-145 prostate = test system: DU-145 prostate
OVCAR-4 ovarian = test system: OVCAR-4 ovarian
SF-539 CNS = test system: SF-539 CNS
IGROV1 ovarian = test system: IGROV1 ovarian
SK-MEL-5 melanoma = test system: SK-MEL-5 melanoma
MDA-MB-435 = test system: MDA-MB-435
SK-OV-3 ovarian = test system: SK-OV-3 ovarian
NCI-H226 lung = test system: NCI-H226 lung
SK-MEL-2 melanoma = test system: SK-MEL-2 melanoma
A498 renal = test system: A498 renal
SR leukemia = test system: SR leukemia
SN12C renal = test system: SN12C renal
HOP-62 NSCLC = test system: HOP-62 NSCLC
SF-295 CNS = test system: SF-295 CNS
HCT-116 colon = test system: HCT-116 colon
KM12 colon = test system: KM12 colon
TK-10 renal = test system: TK-10 renal
HS 578T breast = test system: HS 578T breast
NCI-H522 lung = test system: NCI-H522 lung
MCF7 breast = test system: MCF7 breast
OVCAR-3 ovarian = test system: OVCAR-3 ovarian
K-562 leukemia = test system: K-562 leukemia
CCRF-CEM leukemia = test system: CCRF-CEM leukemia
OVCAR-5 ovarian = test system: OVCAR-5 ovarian
U251 CNS = test system: U251 CNS
HCC-2998 colon = test system: HCC-2998 colon
NCI/ADR-RES ovarian = test system: NCI/ADR-RES ovarian
OVCAR-8 ovarian = test system: OVCAR-8 ovarian
RPMI-8226 leukemia = test system: RPMI-8226 leukemia
LOX IMVI melanoma = test system: LOX IMVI melanoma
COLO 205 colon = test system: COLO 205 colon
MDA-MB-231 breast = test system: MDA-MB-231 breast
NCI-H460 lung = test system: NCI-H460 lung
EKVX NSCLC = test system: EKVX NSCLC

## c1ccc(CSc2nc(N3CCCCC3)c3cn[nH]c3n2)cc1
RXF 393 renal
  TGI: 35.4 µM
CAKI-1 renal
  TGI: > 100 µM
SNB-19 CNS
  TGI: 79 µM
PC-3 prostate
  TGI: 51 µM
BT-549 breast
  TGI: 34.6 µM
UO-31 renal
  TGI: 42.8 µM
M14 melanoma
  TGI: 37 µM
SF-268 CNS
  TGI: 61.3 µM
MOLT-4 leukemia
  TGI: > 100 µM
SNB-75 CNS
  TGI: 46.8 µM
NCI-H23 lung
  TGI: 66.5 µM
MALME-3M melanoma
  TGI: 37.3 µM
UACC-62 melanoma
  TGI: 32 µM
HL-60(TB) leukemia
  TGI: > 100 µM
HCT-15 colon
  TGI: > 100 µM
UACC-257 melanoma
  TGI: 35.4 µM
ACHN renal
  TGI: 94.7 µM
HT29 colon
  TGI: > 100 µM
A549 NSCLC
  TGI: > 100 µM
T-47D breast
  TGI: > 100 µM
SK-MEL-28 melanoma
  TGI: 41.3 µM
SW-620 colon
  TGI: 44.5 µM
HOP-92 NSCLC
  TGI: 72.8 µM
786-0 renal
  TGI: 79.8 µM
DU-145 prostate
  TGI: > 100 µM
OVCAR-4 ovarian
  TGI: > 100 µM
SF-539 CNS
  TGI: 34.9 µM
IGROV1 ovarian
  TGI: 41.8 µM
SK-MEL-5 melanoma
  TGI: 31 µM
MDA-MB-435
  TGI: 47.9 µM
SK-OV-3 ovarian
  TGI: > 100 µM
NCI-H226 lung
  TGI: 44.9 µM
SK-MEL-2 melanoma
  TGI: 32.5 µM
A498 renal
  TGI: 34.3 µM
SR leukemia
  TGI: > 100 µM
SN12C renal
  TGI: 42 µM
HOP-62 NSCLC
  TGI: 43.3 µM
SF-295 CNS
  TGI: 63.7 µM
HCT-116 colon
  TGI: 44.1 µM
KM12 colon
  TGI: 35.4 µM
TK-10 renal
  TGI: 70.2 µM
HS 578T breast
  TGI: 43.9 µM
NCI-H522 lung
  TGI: 36.4 µM
MCF7 breast
  TGI: 72.4 µM
OVCAR-3 ovarian
  TGI: 69.1 µM
K-562 leukemia
  TGI: > 100 µM
CCRF-CEM leukemia
  TGI: > 100 µM
OVCAR-5 ovarian
  TGI: > 100 µM
U251 CNS
  TGI: 40.7 µM
HCC-2998 colon
  TGI: 45 µM
NCI/ADR-RES ovarian
  TGI: > 100 µM
OVCAR-8 ovarian
  TGI: 74.3 µM
RPMI-8226 leukemia
  TGI: 72.8 µM
LOX IMVI melanoma
  TGI: 49.1 µM
COLO 205 colon
  TGI: 62.4 µM
MDA-MB-231 breast
  TGI: 36.8 µM
NCI-H460 lung
  TGI: 64.5 µM
EKVX NSCLC
  TGI: 65.3 µM
